Literature values in patent publication US20240409939A1 (Hoffmann-La Roche Inc., priority 2021, published 2024).

What was measured:
FUBP1 [1] = conditions: Xiong et al 2016; cited from earlier work
FUBP1/FUSE interaction = molecular target: T1, FUBP1/FUSE interaction (Homo sapiens, UniProt Q96AE4); conditions: Hosseini et al 2017; cited from earlier work
T1 sequence (Q96AE4 1-644): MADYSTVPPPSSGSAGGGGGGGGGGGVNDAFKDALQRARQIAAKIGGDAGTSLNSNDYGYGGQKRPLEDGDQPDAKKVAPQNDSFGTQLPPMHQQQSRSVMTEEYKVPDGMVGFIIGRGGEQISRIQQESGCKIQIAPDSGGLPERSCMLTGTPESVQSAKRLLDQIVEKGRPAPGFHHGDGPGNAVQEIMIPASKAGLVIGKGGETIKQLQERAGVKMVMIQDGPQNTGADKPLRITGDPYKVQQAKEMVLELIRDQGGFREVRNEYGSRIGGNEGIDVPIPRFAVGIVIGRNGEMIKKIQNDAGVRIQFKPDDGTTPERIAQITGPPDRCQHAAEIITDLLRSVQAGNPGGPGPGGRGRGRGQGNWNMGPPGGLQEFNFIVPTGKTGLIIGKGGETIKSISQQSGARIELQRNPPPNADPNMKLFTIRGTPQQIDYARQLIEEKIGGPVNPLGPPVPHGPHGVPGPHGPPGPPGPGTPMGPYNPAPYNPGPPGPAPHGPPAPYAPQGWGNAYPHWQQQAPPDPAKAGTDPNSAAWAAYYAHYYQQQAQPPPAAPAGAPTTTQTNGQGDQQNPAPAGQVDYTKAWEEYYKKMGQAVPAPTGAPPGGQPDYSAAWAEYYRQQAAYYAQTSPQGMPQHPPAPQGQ

FUBP1 [2] = conditions: Huth et al 2004; cited from earlier work

SMILES	FUBP1 activity (FUBP1/FUSE interaction) (FUBP1/FUSE interaction)	also measured
CCCc1cc(C)[nH]c(=O)c1CNC(=O)c1cc(-c2ccnc(N3CCN(C)CC3)c2)cc2c1cnn2C(C)C [GSK343]		FUBP1 expression in osteosarcoma cells (FUBP1 [1]): inhibits FUBP1 expression
CCc1c2c(nc3ccc(O)cc13)-c1cc3c(c(=O)n1C2)COC(=O)[C@]3(O)CC [SN-38, SN-38 (4 (S), 11-Diethyl-4,9-dihydroxy-3,4,12, 14-tetrahydro-1H-pyrano [3′,4′: 6,7]indolizino [1,2-b]quinoline-3,14-dione 7-Ethyl-10-hydroxycamptothecin)]	inhibit FUBP1 activity	
CC[C@@]1(O)C(=O)OCc2c1cc1n(c2=O)Cc2cc3ccccc3nc2-1 [camptothecin, Camptothecin ((+)-4 (S)-Ethyl-4-hydroxy-3,4,12, 14-tetrahydro-1H-pyrano [3′,4′: 6,7]indolizino [1,2-b]quinoline-3,14-dione)]	inhibit FUBP1 activity	
O=C(Nc1ccccc1C(=O)Nc1ccccc1C(=O)O)c1ccccc1 [formula II]		inhibition of FUBP1 DNA binding activity (FUBP1 [2]): efficient
